This is an account of results in PMC6270921, “Study on the Cytotoxic Activity of Drimane Sesquiterpenes and Nordrimane Compounds against Cancer Cell Lines” (Molecules, 2014).

In data set [1] the test system is Salmonella strains TA 98, TA 2637, and TA 100. The settings on record: at highest non-toxic concentration; cited from earlier work.
Data set [2] is described as follows: Cell viability, sulforhodamine B assay. It is filed as cell-based. Conditions: human, CCD 841 CoN colon epithelial cells (non-tumoral cell line), 72 h exposure, dilutions 12.5 to 100 μM, non-tumor cell line, read-out: Cytotoxicity IC50, CoN. The procedure:
(§1) The cytotoxicity of compounds 1–12 was evaluated in vitro against different cancer cell lines: MCF-7 breast cancer, DU-145 and PC-3 human prostate cancer, and one non-tumor cell line, human colon epithelial cells CCD 841 CoN (CoN). […] Four serial dilutions (from 12.5 to 100 μM) for each sample were evaluated in triplicate.
(§2) The experimental cell cultures were obtained from the American Type Culture Collection (Rockville, MD, USA). MCF-7 cells (breast cancer cell line), PC-3 and DU-145 (prostate cancer cell lines), and human colon epithelial cells CCD 841 CoN (non-tumoral cell line) were grown in Dulbecco’s modified Eagle’s medium (DMEM) containing 10% FCS, 100 U/mL penicillin, 100 μg/mL streptomycin, and 1 mM glutamine. Cells were seeded into 96 well microtiter plates in 100 μL at a plating density of 5 × 10^3 cells/well. After 24 h incubation at 37 °C under a humidified 5% CO2 atmosphere to allow cell attachment, the cells were treated with different concentrations of drugs and incubated for 72 h under the same conditions. Stock solutions of compounds were prepared in ethanol and the final concentration of this solvent was kept constant at 1%. Control cultures received 1% ethanol alone.
(§3) The sulforhodamine B assay was used according to the method of Skehan et al.. Briefly, the cells were set up at 3 × 10^3 cells per well of a 96 200 μL well, flat-bottomed, microplate. Cells were incubated at 37 °C in a humidified 5% CO2/95% air mixture and treated with the compounds at different concentrations for 72 h. At the end of drug exposure, cells were fixed with 50% trichloroacetic acid at 4 °C. After washing with water, cells were stained with 0.1% sulforhodamine B (Sigma-Aldrich, St. Louis, MO, USA), dissolved in 1% acetic acid (50 μL/well) for 30 min, and subsequently washed with 1% acetic acid to remove unbound stain. Protein-bound stain was solubilized with 100 μL of 10 mM unbuffered Tris base, and the cell density was determined using a […] plate reader (wavelength 540 nm). Values shown are the mean ± SD of three independent experiments in triplicate. The software used to calculate the IC50 values was GraphPad (GraphPad Software, San Diego, CA, USA).
In general terms: Sulforhodamine B stains cellular protein and so reports cell mass.

In data set [3] the test system is MCF-7 breast cancer cell line. Kind of data set: Cell viability, sulforhodamine B assay. The class given is cell-based. The settings on record: Homo sapiens, MCF7, 72 h exposure, dilutions 12.5 to 100 μM, read-out: Cytotoxicity IC50, MCF-7. The procedure:
as §1, §2, §3

Data set [4] has as its system DU-145 prostate cancer cell line. Kind of data set: Cell viability, sulforhodamine B assay. The class given is cell-based. The settings on record: Homo sapiens, 72 h exposure, dilutions 12.5 to 100 μM, read-out: Cytotoxicity IC50, DU145. The procedure:
as §1, §2, §3

The test system of data set [5] is PC-3 prostate cancer cell line. Kind of data set: Cell viability, sulforhodamine B assay. The settings on record: Homo sapiens, 72 h exposure, dilutions 12.5 to 100 μM, read-out: Cytotoxicity IC50, PC-3. The class given is cell-based. As for the experimental part:
as §1, §2, §3

The subject of the next data set is caspase-3 in MCF-7 cells. As to the kind of experiment: Caspase 3 activity assay (colorimetric, DEVD-pNA). The class given is cell-based, human. The settings on record: MCF-7, compound 50 μM; control 1% ethanol. The source says: (§4) Depletion of mitochondrial membrane potential leads to the release of apoptogenic factors, such as cytochrome c in the apoptotic cascade, and activation of caspases. Then we investigated the effects of our compounds on caspase activity. We focused on caspase-3, which is a main executor of apoptosis playing a central role in its biological processing. We analyzed the effect of treatment with the compound 1, 8 and 12 on caspase-3 activation in normal and cancer cells. […] Compound 1 increased the activity of caspase-3 by 3.4 ± 0.1, 1.4 ± 0.1 and 2.8 ± 0.1 times versus control cells in MCF-7 (black), CoN (white) and PC-3 (gray) cells, respectively. Compound 8 increased the activity of caspase 3 by 2.4 ± 0.1, 1.3 ± 0.2 and 2.7 ± 0.1 times versus control cells in MCF-7 (black), CoN (white) and PC-3 (gray) cells, respectively.
(§5) Caspase activity was measured using a colorimetric assay. Briefly, the cells exposed to compounds were collected by centrifugation at 1000 rpm and lysed with lysis buffer (1% Triton X-100, 0.32 M sucrose, 5 mM EDTA, 10 mM Tris–HCl, pH 8.0, 2 mM dithiothreitol, 1 mM PMSF, […] aprotinin, 1 mg/mL leupeptin). Thereafter, the lysates were transferred to wells in a 96-well microplate and were incubated with DEVD-pNA (final concentration 200 μM) specific for caspase-3/7, at 37 °C for 1 h. The intensity of the developed color was read at 405 nm in a microplate reader (SpectraMax, Winooski, VT, USA). The results are expressed as percentages of the control level.

In another data set the test system is caspase-3 in CoN cells. As to the kind of experiment: Caspase 3 activity assay (colorimetric, DEVD-pNA). It is filed as cell-based, human. The settings on record: compound 50 μM, control 1% ethanol.
Description: as §4, §5

Another data set deals with caspase-3 in PC-3 cells. As to the kind of experiment: Caspase 3 activity assay (colorimetric, DEVD-pNA). The class given is cell-based, human. Conditions: PC-3, compound 50 μM; control 1% ethanol.
Description: as §4, §5

Data set [6] has as its system MCF-7 cells. As to the kind of experiment: Morphological assessment of cell apoptosis, Hoechst 33342 staining. The class given is cell-based, human. Conditions: MCF-7, 24 h exposure, fluorescence microscope. As for the experimental part:
(§6) Nuclear changes in PC-3, MCF-7 and CoN cells were observed under a fluorescence microscope (200×, Figure 4).
(§7) Briefly, on 24-well chamber slides, 1 × 10^4 cells/mL were cultured and exposed to compounds for 24 h. The control group was also exposed to 1% ethanol. The cells were washed twice with phosphate buffer solution, fixed with 3.7% formaldehyde, and washed again with phosphate buffer solution. Following the addition of 1 μM Hoechst 33342 (Sigma-Aldrich, Santiago, Chile), they were reacted in a dark room at room temperature for 30 min. After washing, they were examined under an immunofluorescence microscope (IX 81 model inverted microscope, Olympus, Santiago, Chile).

The test system of data set [7] is PC-3 cells. The data set is described as above. The class given is cell-based, human. Conditions: PC-3, 24 h exposure, fluorescence microscope. The procedure:
as §6, §7

Data set [8] deals with CoN cells. Described as above. The class given is cell-based, human. The settings on record: 24 h exposure, fluorescence microscope. As for the experimental part: as §6, §7
Data set [9] deals with MCF-7 cells. Kind of data set: Morphological changes, phase contrast microscope. The class given is cell-based, human. Conditions: MCF-7, 50 μM compound for 24 h. The procedure: (§8) First, the appearance of morphological changes in the cells treated with 50 μM compound for 24 h was analyzed.
Data set [10] relates to PC-3 cells. As to the kind of experiment: Morphological changes, phase contrast microscope. It is filed as cell-based, human. The settings on record: PC-3, 50 μM compound for 24 h. The procedure:
as §8

For data set [11], the system named is CoN cells. Kind of data set: Morphological changes, phase contrast microscope. It is filed as cell-based, human. Conditions: 50 μM compound for 24 h. As for the experimental part:
as §8

For data set [12], the system named is MCF-7 cells. Kind of data set: Mitochondrial membrane permeability, rhodamine 123 flow cytometry. The class given is cell-based, human. Conditions: control treated cells assigned 100%. The source says: (§9) Mitochondria play a crucial role in the apoptotic cascade by serving as a convergent center of apoptotic signals originating from both the extrinsic and intrinsic pathways. Changes induced in the mitochondrial membrane potential (MMP) have been reported previously to represent a determinant in the execution of cell death. As polygodial has been described as an inhibitor of mitochondrial ATPase and also as nonionic surfactant. This effect may be determinant in cell death, we has analyzed the effect of compounds 1, 8 and 12 on the mitochondrial membrane potential using flow cytometry with rhodamine 123 stain [24]. […] Similar differences were observed after treatments with compounds 1 and 8 at 100 μM.
(§10) Rhodamine 123, a cationic, voltage-sensitive probe that reversibly accumulates in mitochondria, was used to detect changes in transmembrane mitochondrial membrane potentials. Cells were labelled with 1 μM rhodamine 123 at 37 °C in cell medium for 60 min before terminating the experiment. Cells were detached from the plate, after washing with ice cold PBS, and the samples were analyzed by flow cytometry. Data are expressed in percentage of cells with rhodamine 123 [24].

Data set [13] has as its system PC-3 cells. Described as above. The class given is cell-based, human. Conditions: control treated cells assigned 100%.
Description: as §9, §10

In data set [14] the test system is CoN cells. The data set is described as above. The class given is cell-based, human. The settings on record: control treated cells assigned 100%.
Description: as §9, §10

Data set [15] deals with panel of cancer cell lines. Kind of data set: Cytotoxicity against a panel of cancer cell lines (summary). It is filed as cell-based. Conditions: Homo sapiens; summary statement of the conclusions. The procedure:
as §1, §3

The IC50 is the midpoint of a concentration-inhibition curve. As to `CC1(C)CCC[C@]2(C)[C@H](C=O)C(C=O)=CC[C@@H]12` [Compound 2, isopolygodial], the mutagenic activity entry in [1] is on record as “no mutagenic activity”. In data set [2], the concentration for half-maximal inhibition (IC50) at 72 h is over 200 µM. For the same compound, the IC50 in data set [3], in [4] and in data set [5] was over 200 µM in each case.
For the compound `CC1(C)CCC[C@]2(C)[C@@H](C3OCCO3)C(C=O)=CC[C@@H]12` [Compound 8], the “increase of caspase-3 activity” value with caspase-3 in MCF-7 cells is listed as 2.4 ± 0.1 times versus control cells; in the data set on caspase-3 in CoN cells it was 1.3 ± 0.2 times versus control cells; in the data set with caspase-3 in PC-3 cells it was 2.7 ± 0.1 times versus control cells. Also, the “nuclear changes after Hoechst 33342 staining” value was “chromatin condensation and karyopyknosis” with MCF-7 cells [6]; “chromatin condensation and karyopyknosis” with PC-3 cells [7]; “chromatin condensation and karyopyknosis” in the data set with CoN cells [8]. Further, the “morphological changes of cells” value in the data set on MCF-7 cells [9], in the data set with PC-3 cells [10] and in the data set on CoN cells [11] was “severely distorted” in each case. In addition, the IC50 at 72 h in [2] was over 200 µM. For the same compound, the IC50 in data set [3] is 97.1 ± 7.2 µM; in data set [4] it was 70.6 ± 5.9 µM; in [5], 65.4 ± 5.5 µM; in data set [15] it was under 200 µM. The “percentage of rhodamine 123 stained cells” value is 93.3% ± 7.1% in the data set on MCF-7 cells [12] (MCF-7, compound 50 µM); 93.3 ± 7.1% with MCF-7 cells [12] (MCF-7, compound 50 µM, listed as Comp. 8); 72.3 ± 6.4 % in the data set with MCF-7 cells [12] (MCF-7, compound 100 µM); 136.2 ± 18.5% in the data set with PC-3 cells [13] (PC-3, compound 50 µM, listed as Comp. 8); 92.8 ± 10.4% with PC-3 cells [13] (PC-3, compound 100 µM); 96.0% ± 7.6% in the data set with CoN cells [14] (compound 50 µM). For the same compound, the “percentage of rhodamine 123 stained cells” value was 96.0 ± 7.6% in the data set on CoN cells [14] (compound 50 µM, listed as Comp. 8) and 52.3 ± 8.4 % with CoN cells [14] (compound 100 µM).
